Reference: ChEMBL document CHEMBL3352562, “(±)-Quassidines I and J, two pairs of cytotoxic bis-β-carboline alkaloid enantiomers from Picrasma quassioides” (J Nat Prod, 2015)

Experiments:
Format in all cases: functional, cell-based
[1] = system: B16; assay: Cytotoxicity against mouse B16 cells assessed as cell survival after 48 hrs by MTT assay; details: B16, 48 h
[2] = Cytotoxicity against human MKN28 cells assessed as cell survival after 48 hrs by MTT assay; details: MKN-28, 48 h
[3] = system: HeLa; assay: Cytotoxicity against human HeLa cells assessed as cell survival after 48 hrs by MTT assay

| SMILES | IC50 [1] [µM] | IC50 [2] [µM] | IC50 [3] [µM] |
| --- | --- | --- | --- |
| COc1cccc2c1[nH]c1c3[n+](cc(OC)c12)[C@H](c1ncc(OC)c2c1[nH]c1ccccc12)CCC3 | 10.8 | 6.3 | 5.75 |
| COc1cccc2c1[nH]c1c3[n+](cc(OC)c12)[C@@H](c1ncc(OC)c2c1[nH]c1ccccc12)CCC3 | 15.4 | 12.3 | 10.5 |
| COc1cccc2c1[nH]c1c([C@@H]3CCCc4c5[nH]c6c(O)cccc6c5c(OC)c[n+]43)ncc(OC)c12 | 9.34 | 4.91 | 4.03 |
| COc1cccc2c1[nH]c1c([C@H]3CCCc4c5[nH]c6c(O)cccc6c5c(OC)c[n+]43)ncc(OC)c12 | 14.8 | 9.64 | 10.9 |
| O=c1[nH]cc(F)c(=O)[nH]1 [FLUOROURACIL] | 7.64 | 9.67 | 13.5 |
